System: Geobacillus stearothermophilus spores (ATCC 7953)
Assay: Fluorescence measurements using enzyme substrates and Geobacillus stearothermophilus spores in LB broth
Type: cell-based
Details: substrate 0.3 mg/mL, 5×10^6 spores, 60° C.
Experimental: Luria-Bertani (LB) broth was prepared by dissolving tryptone (10 g/L), yeast extract (5 g/L), and NaCl (5 g/L) in deionized water. In the examples, 6′-fluoro-4′-methylumbelliferyl α-D-glucopyranoside (0.3 mg/mL) or 5′-fluoro-4′-methylumbelliferyl α-D-glucopyranoside (0.3 mg/mL) was added to the broth. In the comparative examples, 4′-methylumbelliferyl α-D-glucopyranoside (MUG) (0.3 mg/mL) or 6′,8′-Difluoro-4′-methylumbelliferyl α-D-glucopyranoside (0.3 mg/mL) was added to the broth. The pH of the broth was adjusted to either pH 6, pH 7, pH 8, or pH 9 using 0.1 N hydrochloric acid or 1N sodium hydroxide solutions. The broth was passed through a 0.22 micron filter prior to use.
LB broth (pH 6) containing 6′-fluoro-4′-methylumbelliferyl α-D-glucopyranoside (0.3 mg/mL) (enzyme substrate of Example 1) was added to two wells (100 microliters per well) of a black 96-well microtiter plate with optically clear, flat bottom wells (NUNC #165301, Thermo Fisher Scientific, Waltham, MA). A 5 microliter aqueous suspension containing 5×10^6 Geobacillus stearothermophilus spores (ATCC 7953) was added to each well of the microtiter plate. Next, the contents of each well were mixed using a multiple aspiration/delivery sequence with the pipet. […] The top of the plate was covered with an optically clear sealing film (product #4311971, Applied Biosystems Corporation, Foster City, CA). The plate was warmed at 60° C. and shaken in a linear direction. Fluorescence readings (360 nm excitation/450 nm emission at 50% gain) were taken from the bottom of the plate. A reading was taken at an initial time point of 10 seconds and then at +1 minute intervals thereafter. A Synergy Neo2 fluorescence plate reader (BioTek Company, Winooski, VT) was used. In Table 1, the mean fluorescence values detected (RFU) at times of 10 seconds, +5 minutes, +10 minutes, and +30 minutes are reported. The mean fluorescence values detected for the control wells were 978 RFU at 10 seconds; 920 RFU at +5 minutes; 870 RFU at +10 minutes, and 746 RFU at +30 minutes.
(§1) The procedure of Example 3 was followed, with the exception that the LB broth (pH 6) containing 6′-fluoro-4′-methylumbelliferyl α-D-glucopyranoside (0.3 mg/mL) was replaced with LB broth (pH 6) containing 5′-fluoro-4′-methylumbelliferyl-α-D-glucopyranoside (0.3 mg/mL) (enzyme substrate of Example 2). In Table 1, the mean fluorescence values detected (RFU) at times of 10 seconds, +5 minutes, +10 minutes, and +30 minutes are reported. The mean fluorescence values detected for the control wells were 828 RFU at 10 seconds; 784 RFU at +5 minutes; 738 RFU at +10 minutes, and 622 RFU at +30 minutes.
as §1, with “4-methylumbelliferyl α-D-glucopyranoside” for “5′-fluoro-4′-methylumbelliferyl-α-D-glucopyranoside”, “(MUG).” for “(enzyme substrate of Example 2).”, “868” for “828”, “802” for “784”, “756” for “738”, “656” for “622”
The procedure of Example 3 was followed, with the exception that the LB broth (pH 6) containing 6′-fluoro-4′-methylumbelliferyl α-D-glucopyranoside (0.3 mg/mL) was replaced with LB broth (pH 6) containing 6′,8′-difluoro-4′-methylumbelliferyl α-D-glucopyranoside (0.3 mg/mL) (enzyme substrate of Comparative Example A). In Table 1, the mean fluorescence values detected (RFU) at times of 10 seconds, +5 minutes, +10 minutes, and +30 minutes are reported. The mean fluorescence values detected for the control wells were 1,768 RFU at 10 seconds; 1,750 RFU at +5 minutes; 1,743 RFU at +10 minutes, and 1,805 RFU at +30 minutes. […]

[1] = pH 6 LB broth, 360 nm excitation/450 nm emission

SMILES	MEASURED FLUORESCENCE, RFU 10 sec [1] [RFU]	MEASURED FLUORESCENCE, RFU +5 min (pH 6 LB broth) [RFU]	MEASURED FLUORESCENCE, RFU +10 min (pH 6 LB broth) [RFU]	MEASURED FLUORESCENCE, RFU +30 min (pH 6 LB broth) [RFU]	MEASURED FLUORESCENCE, RFU 10 sec (pH 7 LB broth) [RFU]	MEASURED FLUORESCENCE, RFU +5 min (pH 7 LB broth) [RFU]	MEASURED FLUORESCENCE, RFU +10 min (pH 7 LB broth) [RFU]	MEASURED FLUORESCENCE, RFU +30 min (pH 7 LB broth) [RFU]	MEASURED FLUORESCENCE, RFU 10 sec (pH 8 LB broth) [RFU]	MEASURED FLUORESCENCE, RFU +5 min (pH 8 LB broth) [RFU]	MEASURED FLUORESCENCE, RFU +10 min (pH 8 LB broth) [RFU]	MEASURED FLUORESCENCE, RFU +30 min (pH 8 LB broth) [RFU]	MEASURED FLUORESCENCE, RFU 10 sec (pH 9 LB broth) [RFU]	MEASURED FLUORESCENCE, RFU +5 min (pH 9 LB broth) [RFU]	MEASURED FLUORESCENCE, RFU +10 min (pH 9 LB broth) [RFU]	MEASURED FLUORESCENCE, RFU +30 min (pH 9 LB broth) [RFU]
Cc1cc(=O)oc2c(F)c(O[C@H]3O[C@H](CO)[C@@H](O)[C@H](O)[C@H]3O)c(F)cc12 [Comparative Example A, 6′,8′-Difluoro-4′-methylumbelliferyl α-D-glucopyranoside]	29807	68823	85625	>100000	32795	67118	89943	>100000	20878	48312	77765	>100000	4119	12620	31290	77404
Cc1cc(=O)oc2cc(O[C@H]3O[C@H](CO)[C@@H](O)[C@H](O)[C@H]3O)ccc12 [MUG, 4′-methylumbelliferyl-α-D-glucopyranoside]	1590	3100	5607	15915	3298	7944	15511	41643	3450	9572	21171	64484	1193	3444	9258	48874
Cc1cc(=O)oc2cc(O[C@H]3O[C@H](CO)[C@@H](O)[C@H](O)[C@H]3O)cc(F)c12 [Example 2, 5′-Fluoro-4′-methylumbelliferyl α-D-glucopyranoside]	1663	3559	7048	20550	5842	15059	28596	58390	3928	11692	26273	66491	1116	3002	7983	43732
Cc1cc(=O)oc2cc(O[C@H]3O[C@H](CO)[C@@H](O)[C@H](O)[C@H]3O)c(F)cc12 [Example 1, 6′-Fluoro-4′-methylumbelliferyl α-D-glucopyranoside]	11764	30536	51188	82334	24718	54317	79851	>100000	11298	32225	61862	>100000	2823	8863	22809	77125
